Assay results as given in PubChem BioAssay AID1963986 (Molecular Pharmacology Branch, DTP, NCI, 2024).

System: 171881-019-R-J1-PDC tumor spheroid viability
Assay: Anticancer human tumor 171881-019-R-J1-PDC patient-derived invasive breast carcinoma cell line growth inhibition [PI3K]
Conditions: spheroids with HUVEC and MSC; for IC50: curve of first compound; for viability, T/C: stronger effect = lower value
Text: Combinatorial screen of targeted agents with the PI3K inhibitors inavolisib, alpelisib, duvelisib, and copanlisib in multi-cell type tumor spheroids
A high-throughput screen of multi-cell type tumor spheroids was designed to identify active combinations of targeted small molecules and PI3K pathway inhibitors. Complex spheroids include a stromal component modeled by human endothelial cells (HUVEC) and fibroblasts modeled by human mesenchymal stem cells (MSCs). The concentration ranges selected for each drug and investigational agent were based upon clinically achievable concentrations if the clinical Cmax of the agent was known.
Compounds. The drugs and investigational agents: inavolisib (NSC800729), alpelisib (NSC765974), duvelisib (NSC772469), copanlisib (NSC816437), ipatasertib (NSC767898), afuresertib (NSC778305), talazoparib (NSC767125), sapanisertib (NSC764658), selumetinib (NSC741078), tovorafenib (DAY101, NSC766906), vemurafenib (NSC761431), ravoxertinib (NSC781343), sotorasib (NSC818433), MRTX1133 (NSC 836407), abemaciclib (NSC 768073), palbociclib (NSC758247), venetoclax (NSC 766270), SY5609 (NSC837396), enzalutamide (NSC755605), and darolutamide (NSC825331), were obtained from the National Cancer Institute (NCI) Developmental Therapeutics Program Chemical Repository. The FDA-approved anticancer drug set is available from the NCI Developmental Therapeutics Program. […] The stock solutions were prepared in dimethyl sulfoxide (DMSO, Sigma-Aldrich, St. Louis, MO, cat. D2650) at 800-fold the tested concentration and stored at -70 degrees C prior to their use. All drugs and investigational agents were tested over a range starting from a high concentration at or near the clinical Cmax and decreasing in half-log increments. If the clinical Cmax for an agent had not been determined, the highest concentration tested was 10 microM.
Cell Culture. All cells were maintained in an incubator at 37 degrees C and 5% CO2 with 95% humidity. The PDC lines were cultured according to standard operating procedures established by the NCI PDMR (https://pdmr.cancer.gov/sops/default.htm). All PDCs were thawed and cultured in Matrigel-coated flasks prepared with a working solution of 1X Ham's F-12 nutrient mix, without supplementation (Invitrogen, Waltham, MA, cat. 11765054), 100 U/mL penicillin-streptomycin (Invitrogen, cat. 15140122), and 2.5% Matrigel (Corning Inc., Corning, NY, cat. 354248) for the first three passages. The 354836-022-R-J1-PDC, 475296-252-R-J1-PDC, and 997726-040-R-J2-PDC lines were cultured in 6A media, which includes advanced DMEM/F-12 (Thermo Fisher Scientific, cat. 12634028), 10 mM HEPES (Thermo Fisher Scientific, cat. 15630080), 1X GlutaMAX supplement (Thermo Fisher Scientific, cat. 35050061), 0.1 mg/mL primocin (InvivoGen, San Diego, CA, cat. ant-pm-2), 10% defined fetal bovine serum, heat inactivated (HyClone Laboratories Inc., Logan, UT, cat. SH30070.03HI), 50% L-WRN conditioned media (ATCC, cat. CRL-3276), 1.25 mM N-Acetyl-L-cysteine (Sigma-Aldrich, cat. A9165), 10 mM nicotinamide (Sigma-Aldrich, cat. N0636), 1X B-27 supplement (Thermo Fisher Scientific, cat. 17504044), 1X N-2 supplement (Thermo Fisher Scientific, cat. 17502048), and 10 microM Y-27632 dihydrochloride (Tocris Bioscience, Bristol, United Kingdom, cat. 1254). The 624824-186-R-J2-PDC line was cultured in 6C/Colon 1B media, which includes all 6A media components plus 50 ng/mL human EGF recombinant protein (Thermo Fisher Scientific, cat. PHG0311). […]

[1] = second compound 0.00316 µM, first compound 0.0316 µM
[2] = second compound 0.00316 µM, first compound 0.1 µM
[3] = second compound 0.00316 µM, first compound 0.316 µM
[4] = second compound 0.00316 µM, first compound 1 µM
[5] = second compound 0.00316 µM, first compound 3.16 µM
[6] = second compound 0.00316 µM, first compound 10 µM
[7] = second compound 0.01 µM, first compound 0.0316 µM
[8] = second compound 0.01 µM, first compound 0.1 µM
[9] = second compound 0.01 µM, first compound 0.316 µM
[10] = second compound 0.01 µM, first compound 1 µM
[11] = second compound 0.01 µM, first compound 3.16 µM
[12] = second compound 0.01 µM, first compound 10 µM
[13] = second compound 0.0316 µM, first compound 0.0316 µM
[14] = second compound 0.0316 µM, first compound 0.1 µM
[15] = second compound 0.0316 µM, first compound 0.316 µM
[16] = second compound 0.0316 µM, first compound 1 µM
[17] = second compound 0.0316 µM, first compound 3.16 µM
[18] = second compound 0.0316 µM, first compound 10 µM
[19] = second compound 0.1 µM, first compound 0.0316 µM
[20] = second compound 0.1 µM, first compound 0.1 µM
[21] = second compound 0.1 µM, first compound 0.316 µM
[22] = second compound 0.1 µM, first compound 1 µM
[23] = second compound 0.1 µM, first compound 3.16 µM
[24] = second compound 0.1 µM, first compound 10 µM
[25] = second compound 0.316 µM, first compound 0.0316 µM
[26] = second compound 0.316 µM, first compound 0.1 µM
[27] = second compound 0.316 µM, first compound 0.316 µM
[28] = second compound 0.316 µM, first compound 1 µM
[29] = second compound 0.316 µM, first compound 3.16 µM
[30] = second compound 0.316 µM, first compound 10 µM
[31] = second compound 1 µM, first compound 0.0316 µM
[32] = second compound 1 µM, first compound 0.1 µM
[33] = second compound 1 µM, first compound 0.316 µM
[34] = second compound 1 µM, first compound 1 µM
[35] = second compound 1 µM, first compound 3.16 µM
[36] = second compound 1 µM, first compound 10 µM
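Also: spheroids exposed to compound for 7 days before viability read.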
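For viability, T/C in this document: 100% = DMSO vehicle-treated spheroids.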

CC1(C)CCC(CN2CCN(c3ccc(C(=O)NS(=O)(=O)c4ccc(NCC5CCOCC5)c([N+](=O)[O-])c4)c(Oc4cnc5[nH]ccc5c4)c3)CC2)=C(c2ccc(Cl)cc2)C1 + CC(Nc1ccc2c(c1)OCCn1cc(N3C(=O)OCC3C(F)F)nc1-2)C(N)=O
IC50 (second compound 0.00316 µM): 3.73 µM | IC50 (second compound 0.01 µM): 2.72 µM | IC50 (second compound 0.0316 µM): 1.59 µM | IC50 (second compound 0.1 µM): < 0.0316 µM | IC50 (second compound 0.316 µM): < 0.0316 µM | IC50 (second compound 1 µM): < 0.0316 µM | viability, T/C [1]: 83% | viability, T/C [2]: 73.7% | viability, T/C [3]: 91.5% | viability, T/C [4]: 88.1% | viability, T/C [5]: 55.9% | viability, T/C [6]: 15% | viability, T/C [7]: 79.2% | viability, T/C [8]: 87.3% | viability, T/C [9]: 76.8% | viability, T/C [10]: 72.5% | viability, T/C [11]: 46.5% | viability, T/C [12]: 13.9% | viability, T/C [13]: 55.9% | viability, T/C [14]: 56.8% | viability, T/C [15]: 61.6% | viability, T/C [16]: 55.3% | viability, T/C [17]: 41.2% | viability, T/C [18]: 10.3% | viability, T/C [19]: 41.6% | viability, T/C [20]: 41.2% | viability, T/C [21]: 40.6% | viability, T/C [22]: 43.4% | viability, T/C [23]: 36.5% | viability, T/C [24]: 7.86% | viability, T/C [25]: 28.6% | viability, T/C [26]: 27.1% | viability, T/C [27]: 28.5% | viability, T/C [28]: 28.3% | viability, T/C [29]: 29.5% | viability, T/C [30]: 5% | viability, T/C [31]: 20.9% | viability, T/C [32]: 20.9% | viability, T/C [33]: 22% | viability, T/C [34]: 23.4% | viability, T/C [35]: 22% | viability, T/C [36]: 6.08%

C[C@@H](NC(=O)c1ncnc(N)c1Cl)c1ncc(C(=O)Nc2cc(C(F)(F)F)c(Cl)cn2)s1 + CC(Nc1ccc2c(c1)OCCn1cc(N3C(=O)OCC3C(F)F)nc1-2)C(N)=O
IC50 (second compound 0.00316 µM): 5.95 µM | IC50 (second compound 0.01 µM): 2.62 µM | IC50 (second compound 0.0316 µM): 0.399 µM | IC50 (second compound 0.1 µM): < 0.0316 µM | IC50 (second compound 0.316 µM): < 0.0316 µM | IC50 (second compound 1 µM): < 0.0316 µM | viability, T/C [1]: 71.3% | viability, T/C [2]: 88.5% | viability, T/C [3]: 84.2% | viability, T/C [4]: 80.4% | viability, T/C [5]: 63.7% | viability, T/C [6]: 38.8% | viability, T/C [7]: 80.3% | viability, T/C [8]: 78.5% | viability, T/C [9]: 65.8% | viability, T/C [10]: 70.3% | viability, T/C [11]: 44.4% | viability, T/C [12]: 27.4% | viability, T/C [13]: 51.4% | viability, T/C [14]: 53.9% | viability, T/C [15]: 49.5% | viability, T/C [16]: 46.5% | viability, T/C [17]: 31.1% | viability, T/C [18]: 17.1% | viability, T/C [19]: 38.9% | viability, T/C [20]: 35.7% | viability, T/C [21]: 33.8% | viability, T/C [22]: 31.6% | viability, T/C [23]: 20.1% | viability, T/C [24]: 10.7% | viability, T/C [25]: 27% | viability, T/C [26]: 24.5% | viability, T/C [27]: 24.9% | viability, T/C [28]: 23% | viability, T/C [29]: 13.5% | viability, T/C [30]: 6.3% | viability, T/C [31]: 20.7% | viability, T/C [32]: 20.9% | viability, T/C [33]: 19.3% | viability, T/C [34]: 16.4% | viability, T/C [35]: 9.28% | viability, T/C [36]: 3.79%
